Measurements from ChEMBL document CHEMBL1201862, “PubChem BioAssay data set” (2004).
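Grown in 96-well plates, cells were treated for 48 hours with each compound at five concentrations. Insufficient inhibition: endpoint recorded as highest concentration tested. GI50 marks 50% less growth.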 Calls of active or inactive are those of the source. No stated cut-off is given here; in the data, active = GI50 up to about 1.1 µM and inactive = higher.

Key:
Test in all cases: inhibition of tumour cell growth, NCI panel, 48 h
[1] = test system: 786-0
[2] = test system: BT-549
[3] = test system: DU-145
[4] = test system: HOP-62
[5] = test system: IGROV-1
[6] = test system: M14
[7] = test system: MDA-MB-231
[8] = test system: MDA-MB-435
[9] = test system: MDA-N
[10] = test system: NCI-H226
[11] = test system: NCI-H522
[12] = test system: NCI/ADR-RES
[13] = test system: OVCAR-5
[14] = test system: RPMI-8226
[15] = test system: RXF 393
[16] = test system: SK-MEL-2
[17] = test system: TK-10
[18] = test system: UACC-257
[19] = test system: SW-620
[20] = test system: CCRF-CEM

Row | SMILES | GI50 [1] | GI50 [2] | GI50 [3] | GI50 [4] | GI50 [5] | GI50 [6] | GI50 [7] | GI50 [8] | GI50 [9] | GI50 [10] | GI50 [11] | GI50 [12] | GI50 [13] | GI50 [14] | GI50 [15] | GI50 [16] | GI50 [17] | GI50 [18] | GI50 [19] | GI50 [20]
1 | O=C(O)CCC(=O)c1ccc[nH]1 | > 100 µM (inactive) | > 100 µM (inactive) | > 100 µM (inactive) | > 100 µM (inactive) | > 100 µM (inactive) | > 100 µM (inactive) | > 100 µM (inactive) | > 100 µM (inactive) | > 100 µM (inactive) | 64 µM (inactive) | > 100 µM (inactive) | > 100 µM (inactive) | > 100 µM (inactive) | > 100 µM (inactive) | > 100 µM (inactive) | > 100 µM (inactive) | > 100 µM (inactive) | 94 µM (inactive) |  | 
2 | Cc1ccccc1OC(C)C(=O)NN1C(=O)CSC1c1ccccc1 (centres undefined) | > 100 µM (inactive) | > 100 µM (inactive) | > 100 µM (inactive) | > 100 µM (inactive) | > 100 µM (inactive) | > 100 µM (inactive) | > 100 µM (inactive) | 79.3 µM (inactive) | 53.2 µM (inactive) | 67.1 µM (inactive) | 61.9 µM (inactive) | 72.8 µM (inactive) | > 100 µM (inactive) | 34.2 µM (inactive) | 45 µM (inactive) | > 100 µM (inactive) | > 100 µM (inactive) | 45.2 µM (inactive) | > 100 µM (inactive) | 
3 | COc1ccc(C2Oc3ccc(Cl)cc3C=C2[N+](=O)[O-])cc1 (centres undefined) | > 100 µM (inactive) | > 100 µM (inactive) | > 100 µM (inactive) | > 100 µM (inactive) | > 100 µM (inactive) | > 100 µM (inactive) | > 100 µM (inactive) | > 100 µM (inactive) | > 100 µM (inactive) |  | > 100 µM (inactive) | > 100 µM (inactive) | > 100 µM (inactive) | > 100 µM (inactive) | > 100 µM (inactive) |  | > 100 µM (inactive) | > 100 µM (inactive) |  | > 100 µM (inactive)
4 | COc1ccc(-c2c(=O)[nH]n3c(=S)[nH]c(-c4ccccc4)nc23)cc1OC | 17.2 µM (inactive) | 17.4 µM (inactive) | 23 µM (inactive) | 30 µM (inactive) | 23.8 µM (inactive) | 19.9 µM (inactive) | 28.6 µM (inactive) | 18.9 µM (inactive) | 14.8 µM (inactive) | 19.2 µM (inactive) | 17.5 µM (inactive) | 21.3 µM (inactive) | 20.7 µM (inactive) |  | 17.7 µM (inactive) |  | 22.6 µM (inactive) | 24 µM (inactive) | 30.1 µM (inactive) | 9.1 µM (inactive)
5 | COc1cc(-c2[o+]c3cc(O)cc(OC4OC(CO)C(O)C(O)C4O)c3cc2OC2OC(CO)C(O)C(O)C2O)cc(OC)c1O (centres undefined) | > 100 µM (inactive) | > 100 µM (inactive) | > 100 µM (inactive) | > 100 µM (inactive) | > 100 µM (inactive) | > 100 µM (inactive) | > 100 µM (inactive) | > 100 µM (inactive) | > 100 µM (inactive) | > 100 µM (inactive) | > 100 µM (inactive) |  | > 100 µM (inactive) | > 100 µM (inactive) | > 100 µM (inactive) | > 100 µM (inactive) | > 100 µM (inactive) | > 100 µM (inactive) | > 100 µM (inactive) | 70.1 µM (inactive)
6 | CCC(O)CC1OC2(CCC1C)CC1OC(=O)/C=C\C(C)(O)C(O)C(C)C(O)C(OC3CC(OC)C(O)C(C)O3)C(O)C(C)(O)CCC/C=C/C3CC(C)COC3(O)CC(O2)C1C (centres undefined) | 20.2 µM (inactive) | 3.66 µM (inactive) | 2.67 µM (inactive) | 2.93 µM (inactive) | 18.3 µM (inactive) | 6.97 µM (inactive) | 12 µM (inactive) | 1.91 µM (inactive) | 2.05 µM (inactive) | 0.0904 µM (active) |  | 1.67 µM (inactive) | 6.18 µM (inactive) | < 0.01 µM (active) | 26.2 µM (inactive) | 4.98 µM (inactive) | 1.6 µM (inactive) | < 0.01 µM (active) | 14.8 µM (inactive) | 0.23 µM (active)
7 | O=C(c1ccc(-c2ccccc2)cc1)N(Cc1cccnc1)C(=S)N(Cc1cccnc1)C(=O)c1ccc(-c2ccccc2)cc1 | > 100 µM (inactive) | 55 µM (inactive) | > 100 µM (inactive) | > 100 µM (inactive) |  | 81.3 µM (inactive) | > 100 µM (inactive) | 54.6 µM (inactive) | 43.5 µM (inactive) | 76.2 µM (inactive) | > 100 µM (inactive) | > 100 µM (inactive) | > 100 µM (inactive) | 3.56 µM (inactive) |  | > 100 µM (inactive) | > 100 µM (inactive) | > 100 µM (inactive) | > 100 µM (inactive) | > 100 µM (inactive)
8 | O=[N+]([O-])c1ccc(C(Nc2ccccc2)P(c2ccccc2)c2ccccc2)cc1 (centres undefined) | > 100 µM (inactive) | > 100 µM (inactive) | > 100 µM (inactive) | 67.3 µM (inactive) | > 100 µM (inactive) | > 100 µM (inactive) | > 100 µM (inactive) | > 100 µM (inactive) | > 100 µM (inactive) | > 100 µM (inactive) | > 100 µM (inactive) | > 100 µM (inactive) | > 100 µM (inactive) |  | > 100 µM (inactive) | > 100 µM (inactive) | > 100 µM (inactive) | > 100 µM (inactive) | > 100 µM (inactive) | 
9 | COc1ccc2c(c1)C(=O)[C@@](Nc1ccc(C=O)cc1)(OC)[C@@](OC)(c1ccc([N+](=O)[O-])cc1)O2 | > 10 µM (inactive) | > 10 µM (inactive) | > 10 µM (inactive) | > 10 µM (inactive) | > 10 µM (inactive) | > 10 µM (inactive) | > 10 µM (inactive) | > 10 µM (inactive) | > 10 µM (inactive) | 6.12 µM (inactive) |  | > 10 µM (inactive) | > 10 µM (inactive) | > 10 µM (inactive) | > 10 µM (inactive) | > 10 µM (inactive) | > 10 µM (inactive) | > 10 µM (inactive) | > 10 µM (inactive) | > 10 µM (inactive)
10 | Cc1cc2c(-c3ccccc3)cc(=O)[nH]c2cc1N | > 100 µM (inactive) | > 100 µM (inactive) | > 100 µM (inactive) | > 100 µM (inactive) | > 100 µM (inactive) | > 100 µM (inactive) | > 100 µM (inactive) | > 100 µM (inactive) | > 100 µM (inactive) | > 100 µM (inactive) |  | > 100 µM (inactive) | > 100 µM (inactive) | > 100 µM (inactive) | > 100 µM (inactive) | > 100 µM (inactive) |  | > 100 µM (inactive) | > 100 µM (inactive) | > 100 µM (inactive)
11 | N#CC1(C#N)NC(c2cccnc2)C(C#N)(C#N)NC1c1cccnc1 (centres undefined) | > 100 µM (inactive) | > 100 µM (inactive) | > 100 µM (inactive) | > 100 µM (inactive) | > 100 µM (inactive) | > 100 µM (inactive) | > 100 µM (inactive) | > 100 µM (inactive) | > 100 µM (inactive) | > 100 µM (inactive) |  | > 100 µM (inactive) | > 100 µM (inactive) | > 100 µM (inactive) | 28.1 µM (inactive) | > 100 µM (inactive) | > 100 µM (inactive) | > 100 µM (inactive) | > 100 µM (inactive) | > 100 µM (inactive)
12 | C/C(=N\NC(=S)N/N=C(\C)c1ccccn1)c1ccccn1 | 2.07 µM (inactive) | 5.22 µM (inactive) | 3.62 µM (inactive) | 1.05 µM (active) | 4.28 µM (inactive) | 1.27 µM (inactive) | 21.5 µM (inactive) | 6.9 µM (inactive) | 5.4 µM (inactive) | 0.738 µM (active) | 6.49 µM (inactive) | 0.381 µM (active) | 0.675 µM (active) | 2.54 µM (inactive) |  |  | > 100 µM (inactive) | 4.09 µM (inactive) | 1.75 µM (inactive) | 0.337 µM (active)
13 | CC(=O)Nc1ccc(/N=N\c2c(O)c(S(=O)(=O)O)cc3cc(S(=O)(=O)O)ccc23)cc1 | > 100 µM (inactive) | > 100 µM (inactive) | > 100 µM (inactive) | > 100 µM (inactive) | > 100 µM (inactive) | > 100 µM (inactive) | > 100 µM (inactive) | > 100 µM (inactive) | > 100 µM (inactive) | > 100 µM (inactive) | > 100 µM (inactive) | > 100 µM (inactive) | > 100 µM (inactive) | > 100 µM (inactive) | > 100 µM (inactive) | > 100 µM (inactive) | > 100 µM (inactive) | > 100 µM (inactive) | > 100 µM (inactive) | 
14 | FC(F)(F)c1ccc2c(c1)nc(-c1ccc(Cl)cc1)n2CC1CCCN2CCCCC12 (centres undefined) | 13.8 µM (inactive) | 14.4 µM (inactive) | 14.9 µM (inactive) | 13.9 µM (inactive) | 14.4 µM (inactive) | 14 µM (inactive) | 7.33 µM (inactive) | 16.9 µM (inactive) | 15.7 µM (inactive) | 14.8 µM (inactive) | 13.2 µM (inactive) | 14.8 µM (inactive) | 6.41 µM (inactive) |  | 13.9 µM (inactive) | 15.9 µM (inactive) | 14.9 µM (inactive) | 14.9 µM (inactive) | 18.5 µM (inactive) | 10.8 µM (inactive)
15 | C1=C(CC2=C[P+](c3ccccc3)(c3ccccc3)C=C(c3ccccc3)O2)OC(c2ccccc2)=C[P+]1(c1ccccc1)c1ccccc1 | 0.684 µM (active) | 0.097 µM (active) | 0.482 µM (active) | 0.597 µM (active) | 0.184 µM (active) | 0.573 µM (active) | 0.313 µM (active) | 0.304 µM (active) | 0.337 µM (active) |  |  | 14.3 µM (inactive) | 1.04 µM (active) | 0.18 µM (active) |  |  | 0.475 µM (active) | 0.352 µM (active) | 0.367 µM (active) | 0.361 µM (active)
